Ends that are not written are not given here. Peptide text beside a SMILES is read from it. * marks the point of attachment. Biotin = O=C1N[C@H]2[C@H](CS[C@H]2CCCCC(=O)*)N1; Cbz = O=C(OCc1ccccc1)*; Ahx = NCCCCCC(=O)O; CH2F = FC*

Experiment [1] relates to tumor cells. The experiment can be described thus: Tumor cell death with pan-caspase inhibitor. As to conditions: plus cell-permeable MFF peptide #8–11, Supplementary Fig. S4D. It counts as cell-based.
For experiment [2], the system named is tumor cells. The experiment can be described thus: HMGB1 release. In kind it is cell-based. The following applies: Supplementary Fig. S4F and G.
Experiment [3] has as its target endogenous voltage-dependent anion channel-1 (VDAC1) (human (endogenous in PC3)) (UniProt P21796).

endogenous voltage-dependent anion channel-1 (VDAC1) (human (endogenous in PC3)), sequence (P21796 whole entry): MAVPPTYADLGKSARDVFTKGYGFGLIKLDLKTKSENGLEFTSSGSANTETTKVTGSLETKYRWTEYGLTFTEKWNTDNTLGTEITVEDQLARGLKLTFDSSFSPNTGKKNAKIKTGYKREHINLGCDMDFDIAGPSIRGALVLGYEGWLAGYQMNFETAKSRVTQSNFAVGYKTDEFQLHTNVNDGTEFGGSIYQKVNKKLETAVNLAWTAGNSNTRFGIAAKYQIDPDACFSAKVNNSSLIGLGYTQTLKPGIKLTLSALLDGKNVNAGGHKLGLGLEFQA

Regarding `COC(=O)C[C@H](NC(=O)[C@H](C)NC(=O)[C@@H](NC(=O)OCc1ccccc1)C(C)C)C(=O)CF` [Z-VAD-fmk] (Cbz-Val-Ala-Asp(OMe)-CH2F), the “reversal of cell death induced by cell-permeable MFF peptide #8–11” value with tumor cells [1] is “did not significantly reduce tumor cell death”.

As to “MFF-DD mutant peptide #8–11: MFF peptide #8–11 containing the double mutation Arg225Asp/Arg236Asp (DD) ({Biotin-Ahx}-RQIKIWFQNRRMKSADGILSLIQSSTDRAYQQIL)”, the HMGB1 release entry in the experiment with tumor cells [2] is recorded as “did not cause HMGB1 release”.

B1: cell-permeable MFF peptide #8-11 (peptide)
peptide: {Biotin-Ahx}-RQIKIWFQNRRMKSARGILSLIQSSTRRAYQQIL
Take B1: the other in experiment [3] came out at 10 µM.

These data come from publication PMC6911621 (Cancer research, 2019).
